Source: patent US7419669B2, “Peptide epitopes common to antigens of the same multigene family” (Institut Gustave Roussy, priority 2002, dated 2008)
“Also recorded” adds a separate entry of the source. Where no end group is shown, it is not given here.

What was measured:
tumor cells = settings: MICONNET et al., 2000; cited from earlier work
[1] = target: HLA-B*3701 allele of MHC-I (Homo sapiens, UniProt P01889, A329T/A93T/A95T/C349S/D138N/D201E/D98Y/E176V/E187T/E204Q/E69T/G107R/H137Y/K202T/L119I/N104T/N87E/Q94N/R106L/R155S/R180D/S101D/S121R/V306I/Y123S/Y140F/Y33H/Y91S); settings: TANZARELLA et al., 1999; cited from earlier work
HHD transgenic mice = assay: Induction of specific CTLs in HHD transgenic mice by immunization with variant MAGE-A peptides; 51Cr cytotoxicity on peptide-loaded RMAS-HHD targets; assay type: in vivo; settings: HHD mice, 100 μg s.c. in Freund's incomplete adjuvant; RMAS-HHD targets, effector/target 40/1
Protocol: The immunogenicity of the variant peptides p174Y1V10, p262L2 and p248V9 was evaluated by generation of CTLs on HHD transgenic mice (PASCOLO et al., J. Exp. Med., 185, 2043, 1997). These mice are β2m−/−, D^b−/− and express an HLA-A*0201 single chain made up of the α1 and α2 domains of HLA-A*0201 and the α3 and intracellular domains of D^b, linked via its N-terminal to the C-terminal of human β2-microglobulin, via a peptide of 15 amino acids.
The HHD mice are given a subcutaneous injection at the base of the tail with 100 μg of each variant peptide to be tested, emulsified in Freund's incomplete adjuvant, in the presence of 140 μg of a T-helper epitope derived from the HBV “core” antigen (128-140, sequence […]).
After 11 days, spleen cells taken from the mice (5×10^7 cells in 10 ml) are stimulated in vitro with the test peptide (10 μM). On the 6th day of culture, the populations which respond are tested in order to determine a specific cytotoxicity. The cells which respond are restimulated in vitro at one-week intervals with 2×10^7 irradiated (3000 rads) HHD spleen cells and 1 to 0.1 μM of peptide in the presence of 50 IU/ml of recombinant IL2 (Proleukin, Chiron Corp).
Cytotoxicity assays are carried out 6 days after the final stimulation.
RMAS-HHD cells are used as targets to study the cytotoxicity. The cells are obtained by transfection of murine RMAS cells with the HHD construct as described by PASCOLO et al. (J. Exp. Med., 185, 2043, 1997).
These target cells are labeled with 100 μCi of ^51Cr for 90 minutes, and then washed three times and plated out in round-bottomed 96-well plates (3×10^3 cells/well in 100 μl of RPMI 1640+3% of fetal calf serum). They are loaded with various concentrations of test peptide (variant, native peptide, or irrelevant control peptide), at 37° C. for 90 minutes.
Next, 100 μl of the effector cells (effector cell/target cell ratio=40/1) are added to the wells and the plates are incubated at 37° C. for 4 hours. After incubation, 100 μl of supernatant are collected and the radioactivity is measured in a γ-counter.
The percentage of specific lysis is calculated by means of the formula: [(experimental ^51Cr release−spontaneous ^51Cr release)/(maximum ^51Cr release−spontaneous ^51Cr release)]×100. In all the experiments, the spontaneous release is less than 20% of the maximum release induced with 3N HCl.

[2] = test system: COS-7 cells cotransfected with HHD construct and MAGE-A cDNA; assay: Stimulation of CTL248 line (induced with p248V9) with transfected COS-7 cells expressing MAGE-A antigens, TNF-α secretion; assay type: cell-based, monkey
Protocol: A CTL line called CTL248 was established from the spleen cells of an HDD mouse immunized with the peptide p248V9, by repeated stimulation in vitro with decreasing concentrations of p248G9 (10 μM-1 μM). This line is maintained in culture in the presence of 1 μM of the peptide p248G9.
The cells of the CTL248 line are stimulated, for each of the MAGE-A1, -A2, -A3, -A4, -A6, -A10 and -A12 antigens, with monkey cos-7 cells cotransfected with the HAD construct (PASCOLO et al., mentioned above) and a plasmid containing the cDNA for said antigen. By way of negative controls, COS-7 cells transfected either with the HHD construct alone or with the cDNA for the MAGE-A antigen concerned are used. The stimulation of the CTLs is evaluated by measuring their secretion of TNF-α. […]
After incubation for 6 hours, the supernatant is removed and brought into contact with WEHI164 clone 13 mouse fibrosarcoma cells (3×10^4 per well), which are characterized by a high sensitivity to TNF-α-induced apoptosis. In order to quantify the amount of TNF in the culture supernatants, a standard range of TNF-α (concentrations of 0 to 10^4 pg/ml) is used in parallel. After incubation for 16 hours at 37° C., the viability of the WEHI-164 clone 13 cells is determined by means of an MTT colorimetric assay (SIGMA) (ESPEVIK and NISSEN MEYER, J. Immunol. Methods, 95, 99, 1986).

[3] = test system: HLA-A*0201 human tumor cells expressing MAGE-A antigens (M44, M113, OBR); assay: Stimulation of CTL248 line with HLA-A*0201 human tumor cells expressing MAGE-A antigens, TNF-α secretion; assay type: cell-based
Protocol: The following HLA-A*0201 tumor lines were used: • lines expressing at least one MAGE-A antigen: M44 and M113 (melanoma); OBR (bladder cancer); • lines not expressing MAGE-A antigens: MCF-7 (breast cancer) and Caco-2 (colon cancer).
The CTL248 line was stimulated with each of the tumor lines mentioned above.
The stimulation is evaluated by detecting the secretion of TNF-α as described above.
In order to confirm that the tumor cell recognition is indeed HLA-A*0201-restricted, the CTL248 cells were stimulated with M44 cells preincubated for one hour with an anti-HLA-A*0201 monoclonal antibody (BB7.2) or with an irrelevant antibody (anti-CD19), and the production of TNFα was measured as described above.

[4] = test system: CD8+ cells from normal donors; assay: Induction of specific human CTLs in vitro from PBMCs of normal donors with p248V9, intracellular IFNγ production; assay type: cell-based
Protocol: The ability of p248V9 to induce CTLs in vitro using peripheral blood mononuclear cells (PBMCs) from normal donors was tested as follows.
The PBMCs are obtained, from blood samples taken by leukocytapheresis on normal donors, after centrifugation at 2000 rpm for 20 min on a Ficoll/Hypaque (Amersham) gradient. After 3 washes in 0.9% NaCl, they are resuspended in complete medium (RPMI 1640 supplemented with 10% of heat-inactivated human AB serum, 40 μg/ml of gentamicin (Panpharma) and […] of L-glutamine (Gibco)), and incubated at 37° C. for 2 hours. After incubation, the non-adherent cells are removed. The adherent cells are differentiated into dendritic cells by culturing in a Teflon bag in a proportion of 3×10^6 cells/ml in complete medium supplemented with 500 IU/ml of GM-CSF (R & D Systems) and 500 IU/ml of IL-4 (R & D Systems). On the seventh day, maturing agents (100 ng/ml of polyI:C and 2 μg/ml of anti-CD40 antibody) are added to the culture. After 24 hours, the mature dendritic cells are loaded with the peptide p248V9 by incubation for 2 hours with 10 μM of peptide in the presence of 5 μg/ml of β2-microglobulin, and then irradiated at 3500 rads; they are then washed in order to remove the free peptide. CD8+ cells are isolated from the non-adherent cells by means of microbeads coupled to an anti-CD8 antibody (Miltenyi Biotec).
2×10^5 CD8+ cells are stimulated with 2×10^4 dendritic cells loaded with the peptide, in complete medium supplemented with 1000 IU/ml of IL-6 and 5 IU/ml of IL-12 in a final volume of 100 μl/well in a 96-well plate. From the seventh day, the cultures are stimulated in vitro each week with the dendritic cells loaded with the peptide, in the presence of 20 IU/ml of IL-2 and 10 ng/ml of IL-7. After the third restimulation, the CD8+ cells are collected and stimulated with EBV-transformed HLA-A*0201 allogenic B cells, in a 1/2 ratio, in the presence of 10 μM of peptide, for 16 hours.
The IFNγ-producing CD8+ cells are purified using a commercial kit (IFNγ secretion assay-cell enrichment and detection kit, Miltenyi Biotech). The cells thus purified are cultured for one week in complete medium supplemented with 20 IU/ml of IL-2 and 10 ng/ml of IL-7.
The response of these CD8+ cells to T2 cells loaded with one of the peptides p248V9, p248G9 or p248D9, or with a irrelevant peptide (HIVgag76), or to HLA-A*0201+MAGE-A+ tumor cells (M44 and M113) or HLA-A*0201+MAGE-A^− tumor cells (Caco-2), is evaluated by assaying the intracellular IFNγ production.
The CD8+ cells are incubated with the cells of the tumor line tested, in the presence of 20 μg/ml of Brefeldine-A (Sigma). […]
The cells are then analyzed by flow cytometry (FACSCalibur™ (Becton Dickinson) and CellQuest™ software).

## FLWGPRALV
Tumor cells
  processing of the epitope by tumor cells: not efficiently processed by tumor cells

## REPVTKAEML (listed as Homo sapiens)
[1]
  binding to HLA-B*3701: binds to the HLA-B*3701 allele of MHC-I

## YLEYRQVPV (not fully specified) [p248V9]
HHD transgenic mice
  CTL response generated by immunization with the variant peptide: induces a CTL response directed not only against this variant but also against the two native peptides p248G9 and p248D9; also recorded: generates CTLs which kill the RMAS-HHD targets loaded with the variant peptide, or with the corresponding native peptide
[2]
  recognition of naturally processed MAGE-A epitope by CTLs induced with the peptide (COS-7 transfectants): recognize a naturally processed epitope common to the MAGE-A1, -A2, -A3, -A4, -A6, -A10 and -A12 antigens
[3]
  recognition of naturally processed MAGE-A epitope by CTLs induced with the peptide (HLA-A*0201 human tumor lines): recognize a naturally processed epitope common to the MAGE-A1, -A2, -A3, -A4, -A6, -A10 and -A12 antigens
[4]; PBMCs from normal donors, peptide-loaded dendritic cells, intracellular IFNγ
  induction of human CTLs by the peptide: induces human CTLs capable of also recognizing the corresponding native peptides, and capable of recognizing tumor cells expressing varied MAGE-A antigens
[4]; intracellular IFNγ production
  response of p248V9-induced human CD8+ cells to T2 cells loaded with the peptide: a response of the CD8+ cells
